From patent US20260357349A1, “METHODS OF IDENTIFYING AND TREATING CANCER” (Agency for Science, Technology and Research, priority 2022, published 2026)

Assays:
[1] = tested on: RELA; assay: Total RELA protein level after bortezomib; format: cell-based, human; conditions: bortezomib treatment
Procedure: Data are presented as median+/−25%. Lower whisker is smallest observation greater than or equal to 25% quantile-1.5*interquantile range (IQR). Upper whisker represents the largest observation less than or equal to 75%+1.5*IQR. Amount of normalized RELA protein in the c) input or d) co-immunoprecipitated with SMARCA4 from 3 independent runs. […]
Cell lines were harvested with cold RIPA lysis buffer (50 mM Tris pH 8, 150 mM NaCl, 0.1% Triton X-100, 0.5% Sodium deoxycholate, 0.1% SDS) with protease inhibitors (Roche) on ice. […] Protein concentration was measured by Pierce BCA protein assay (Life Technologies). […]

[2] = tested on: NF-κB target genes (786-O cells); assay: RT-qPCR of NF-κB target genes after NF-κB inhibitor, 786-O; format: cell-based, human; conditions: 0.006 μM bortezomib or 0.6 µM Bay 11-7085, 24 hours
Procedure: Colony formation of parental (WT) or PBRM1 knockout (KO) 786-O cells expressing shRNA against non-targeting control (NC), RELA, or NFKB1 cultured with a) 10% or b) 2% serum. c) Gene expression changes of NF-κB target genes in 786-O cells treated with 0.006 μM bortezomib (BTZ) or 0.6 µM Bay 11-7085 for 24 hours (n=3 technical replicates). * p-value<0.05 (two-sided t-test). […] A positive log fold change refers to gain in bortezomib treatment over DMSO. g) Colony formation of 786-O isogenic cells and h) NCC432 isogenic cells treated with bortezomib for a week. Tumor formation of isogenic 786-O cells (i) and NCC432 cells (j) treated with PBS control or 0.5 mg/kg bortezomib (BTZ) in NSG mice. (n=10 tumors per group for 786-O, and n=16 tumors for NCC432 PBS EV group and 12 tumors for NCC432 PBS PBRM1 group and 14 tumors for both NCC432 EV and PBRM1 BTZ groups). Data are presented as mean values+/−SEM. k) Model for the study.

For `CC(C)C[C@H](NC(=O)[C@H](Cc1ccccc1)NC(=O)c1cnccn1)B(O)O` [bortezomib], the “effect on total protein levels of RELA” value [1] was “did not significantly affect” and the “suppressing the expression of NF-κB target genes” value [2] was “effective at suppressing the expression of NF-κB target genes”.
